Assays:
Format in all cases: in vivo
substantia nigra p-α-s = experiment: Substantia nigra p-α-s protein expression in MPTP Parkinson's disease model mouse (immunofluorescence); settings: percentage of mean intensity of blank control group, gavage 21 days after MPTP modeling
midbrain TH = experiment: Midbrain TH expression in MPTP Parkinson's disease model mouse (western-blotting); settings: midbrain total protein, GAPDH internal reference, gavage 21 days after MPTP modeling
substantia nigra TH = experiment: Substantia nigra TH expression in MPTP Parkinson's disease model mouse (immunofluorescence); settings: percentage of mean intensity of blank control group, gavage 21 days after MPTP modeling
midbrain CD11b = experiment: Midbrain CD11b protein expression in MPTP Parkinson's disease model mouse (western-blotting); settings: midbrain, MPTP Parkinson's disease model mouse, western-blotting
substantia nigra GFAP = experiment: Number of substantia nigra astrocytes with GFAP positive expression in MPTP Parkinson's disease model mouse (immunohistochemistry); settings: substantia nigra, MPTP Parkinson's disease model mouse, immunohistochemistry
GCLC = experiment: Midbrain GCLC expression in MPTP Parkinson's disease model mouse (western blot); settings: midbrain, MPTP Parkinson's disease model mouse, western blot

| Compound | Expression (Immunofluorescence intensity %) (substantia nigra p-α-s) [%] | Expression (TH/GAPDH) (midbrain TH) | Expression (Immunofluorescence intensity %) (substantia nigra TH) [%] | Expression (CD11b/GAPDH) (midbrain CD11b) | Positive cell number (astrocytes with GFAP positive expression) (substantia nigra GFAP) | Expression (GCLC/GAPDH) (GCLC) |
| --- | --- | --- | --- | --- | --- | --- |
| CC[Si](CC)(Oc1ccc(C(Cl)S(=O)(=O)/C=C/c2ccc(OC(=O)N3CC(C)OC(C)C3)c(OC(=O)c3cccc(Cl)c3OC)c2)cc1)c1ccccc1 (stereo not drawn) [Compound R1-5, (E)-4-{2-[4-(diethylphenylsiloxy)phenylchloromesyl]ethenyl}-2-(3-chloro-2-methoxybenzoyloxy)phenyl-2,6-dimethylmorpholine-4-carboxylate] | 125.28 ± 9.35 | 0.94 ± 0.03 | 92.45 ± 3.93 | 1.25 ± 0.08 | 90 ± 6 | 1.02 ± 0.09 |
| Cc1ccc(S(=O)(=O)Oc2ccc(CS(=O)(=O)/C=C/c3ccc(OS(=O)(=O)c4ccc(C)cc4)c(OC(=O)N(C)S(=O)(=O)c4ccc(C)cc4)c3)cc2)cc1 [Compound S6-6, (E)-2-(N-methyl-N-p-tosylcarbamoyloxy)-4-{2-[(4-p-tosyloxyphenyl)mesyl]ethenyl}phenyl p-toluenesulfonate] | 72.57 ± 6.63 | 1.07 ± 0.06 | 96.01 ± 7.32 | 0.62 ± 0.04 | 78 ± 4 | 1.29 ± 0.08 |
| O=C(/C=C/c1ccc(O)c(O)c1)OCCc1ccccc1 [Positive control group, caffeic acid phenethyl ester, reference compound] | 202.07 ± 8.34 | 0.85 ± 0.04 | 79.21 ± 6.59 | 1.28 ± 0.10 | 132 ± 8 | 0.77 ± 0.06 |
| (E)-2-[(methylamino)methoxy]-4-{2-[1-(4′-nitro-[1,1′-biphenyl]-4-yl)ethylsulfonyl]ethenyl}phenylcarbamate [Compound M1-3] | 79.17 ± 5.10 | 0.84 ± 0.06 | 84.07 ± 3.19 | 0.84 ± 0.06 | 110 ± 5 | 0.82 ± 0.07 |
